# Results reported in publication PMC7835927, “Natural Polyhydroxy Flavonoids, Curcuminoids, and Synthetic Curcumin Analogs as α7 nAChRs Positive Allosteric Modulators” (International Journal of Molecular Sciences, 2021).
# Read-outs that look alike come from different tables or passages of the source.
# Assays:
# [1] = Solubility as noted in the concentration-response experiments; assay type: physicochemical; conditions: hindered the use of higher concentrations in the curves
# Description: Figure 1 Characterization of curcumin (12) and two curcuminoids (compounds 13 and 14). (a–c) Ionic currents recorded in representative oocytes expressing human α7 nAChRs. […] All currents were recorded at a holding potential of –80 mV. […] Continuous lines represent the fit to the Hill equation. […] Thus, maximal potentiating effects were estimated as 11 ± 3-, 5.5 ± 0.3-, and 5.5 ± 1.0-fold for compounds 12, 13, and 14, respectively. […] Data were taken from 3–7 oocytes from at least 2 donors.
# [2] = molecular target: T1, human α7 nAChRs (Homo sapiens, UniProt P36544); test: Two-electrode voltage-clamp in Xenopus oocytes expressing human α7 nAChRs: potentiation of ACh-evoked currents; assay type: cell-based; conditions: for % ± s.e. Current vs. ACh [200 µM]: Table 1; for % ± s.e. Current vs. ACh [200 µM] / % ± s.e. Current Vs. ACh [200 µM]: compound 10 µM co-applied with 200 µM ACh, −80 mV, normalized to ACh alone, 6–10 oocytes; for maximal potentiating effect: concentration-response, co-applied with ACh 200 µM, estimated; for maximal potentiating effect / nH of ACh concentration-response curve / Imax of ACh concentration-response curve: Hill fit; for activity at 10 µM: read-out: % ± s.e. Current vs. ACh [200 µM]; for PAM properties / effect on ACh-induced currents, in words: 10 µM screening; for % ± s.e. Current Vs. ACh [200 µM]: Table 2
# T1 construct: expressed in transfected cells; host or cells: Xenopus laevis oocytes injected with in vitro transcribed capped cRNA (pSP64T derivatives)
# T1 sequence (P36544 23-502): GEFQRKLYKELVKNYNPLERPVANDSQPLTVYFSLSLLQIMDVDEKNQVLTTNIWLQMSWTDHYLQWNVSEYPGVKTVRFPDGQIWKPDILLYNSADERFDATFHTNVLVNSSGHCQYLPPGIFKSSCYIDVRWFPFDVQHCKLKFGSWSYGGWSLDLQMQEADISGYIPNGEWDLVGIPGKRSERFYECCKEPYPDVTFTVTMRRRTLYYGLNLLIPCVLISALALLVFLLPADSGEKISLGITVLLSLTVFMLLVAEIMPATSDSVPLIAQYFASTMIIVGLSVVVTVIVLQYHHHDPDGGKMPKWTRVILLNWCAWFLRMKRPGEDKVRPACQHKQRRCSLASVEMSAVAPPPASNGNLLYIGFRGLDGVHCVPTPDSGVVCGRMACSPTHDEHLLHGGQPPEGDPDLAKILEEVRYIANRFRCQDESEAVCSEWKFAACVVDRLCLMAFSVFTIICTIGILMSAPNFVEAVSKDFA
# Description: The obtained compounds were screened to determine their capacity to modulate the α7 nAChR activity (Table 2).
# All human nAChR cDNAs were cloned in derivatives of the pSP64T vector containing part of the pBluescript polylinker. Capped mRNA was synthesized in vitro using SP6 RNA polymerase, the mMESSAGEmMACHINE kit from Ambion (Thermo Fisher Scientific, Madrid, Spain), and the pSP64T derivatives mentioned above. Defoliculated Xenopus laevis oocytes were injected with 5 ng of each subunit cRNA in 50 nL of sterile water. All experiments were performed within 2–3 days after cRNA injection. […] Barium, instead of calcium, was used as the extracellular divalent cation to avoid the presence of calcium-activated chloride currents. […] All experiments were performed at 22 °C. The holding potential was usually −80 mV. Current records were measured with Clampfit 10.0 (MDS Analytical Technologies, Sunnyvale, CA, USA). […] Data are expressed as mean ± SEM. All chemicals were purchased from Sigma-Aldrich (St. Louis, MO, USA).
# [3] = tested on: α7 nAChRs; conditions: cited from earlier work; for reported profile on ACh-evoked α7 nAChR currents in oocytes: oocytes expressing α7 nAChRs
# [4] = Chemical stability in H2O/acetonitrile 20/80 checked by HPLC; assay type: physicochemical; conditions: period of two months
# From the text: To discard any possible artefacts due to decomposition of the compounds in solution, the chemical stability of the best compounds 17, 23, and 25 was checked in aqueous mixtures of H2O/acetonitrile 20/80 for a period of two months.
# [5] = in the presence of compound 13 vs absence
# [6] = read-out: EC50 of potentiating effect
compound,measurement,setting,value
"COc1cc(/C=C/C(O)=C/C(=O)/C=C/c2ccc(O)cc2)ccc1O [Compound 13, Demethoxycurcumin]","solubility, in words",[1],Limited solubility
same,EC50,[2],4.9 µM
same,% ± s.e. Current vs. ACh [200 µM],[2],408 ± 18%
same,maximal potentiating effect,[2],5.5 ± 0.3 fold
same,nH of ACh concentration-response curve,[2]; in the presence of 3 µM 13,2.36
same,Imax of ACh concentration-response curve,"[2]; in the presence of 3 µM 13, normalized to control peak current with 1 mM ACh",2.70
same,increase in apparent efficacy of ACh,[2]; [5],2 fold
same,leftward shift of ACh dose-response curve,[2]; [5],3 fold
same,activity at 10 µM,[2],408%
"O=c1c(O)c(-c2ccc(O)cc2)oc2cc(O)cc(O)c12 [Compound 6, Kaempferol]",activity at 10 µM,[2],155 ± 5%
"O=c1cc(-c2ccc(O)cc2)oc2cc(O)cc(O)c12 [Compound 1, Apigenin]",activity at 10 µM,[2],108 ± 4%
"O=C1c2c(O)cc(O)cc2OC(c2ccc(O)c(O)c2)C1O (stereo not drawn) [Compound 10, Taxifolin]",activity at 10 µM,[2],107 ± 5.5%
"(Z)-1-(2,4-Dimethoxyphenyl)-7-(2,5-dimethoxyphenyl)-5-hydroxyhept-4-en-3-one [Compound 24]","PAM properties / effect on ACh-induced currents, in words",[2]; ACh 200 µM,No significant PAM properties
same,% ± s.e. Current Vs. ACh [200 µM],[2],53.5 ± 3.5%
"O=c1c(O)c(-c2ccc(O)c(O)c2)oc2cc(O)cc(O)c12 [Compound 2, Quercetin]",% ± s.e. Current vs. ACh [200 µM],[2],130 ± 10%
same,reported profile on ACh-evoked α7 nAChR currents in oocytes,[3],PAM profile
"CC(=O)OCC[N+](C)(C)C [ACh, acetylcholine]",nH of ACh concentration-response curve,[2]; control conditions (ACh alone),1.25
same,Imax of ACh concentration-response curve,"[2]; control conditions (ACh alone), normalized to peak current with 1 mM ACh",1.25
"O=c1c(O)c(-c2ccc(O)c(O)c2)oc2c(O)c(O)cc(O)c12 [Compound 5, Gossypetin]",activity at 10 µM,[2],115 ± 2%
"O=C(/C=C(\O)CCc1ccc(O)cc1O)CCc1ccc(O)cc1O [Compound 25, (Z)-1,7-Bis(2,4-dihydroxyphenyl)-5-hydroxyhept-4-en-3-one]",% ± s.e. Current Vs. ACh [200 µM],[2],251 ± 24%
same,chemical stability in solution (HPLC retention times and purity),[4],no alteration on the retention times and purity
"COc1ccc(/C=C/C(=O)/C=C(O)/C=C/c2ccc(OC)cc2OC)c(OC)c1 [Compound 17, (1E,4Z,6E)-1,7-Bis(2,4-dimethoxyphenyl)-5-hydroxyhepta-1,4,6-trien-3-one]",chemical stability in solution (HPLC retention times and purity),[4],no alteration on the retention times and purity
"O=c1c(O)c(-c2cc(O)c(O)c(O)c2)oc2cc(O)cc(O)c12 [Compound 7, Myricetin]",activity at 10 µM,[2],97 ± 6%
"O=C(/C=C/c1ccc(O)cc1)CC(=O)/C=C/c1ccc(O)cc1 [Compound 14, Bisdemethoxycurcumin]","solubility, in words",[1],Limited solubility
same,% ± s.e. Current vs. ACh [200 µM],[2],469 ± 42%
same,maximal potentiating effect,[2],5.5 ± 1.0 fold
same,activity at 10 µM,[2],469%
same,EC50,[2]; [6],6.9 ± 3.1 µM
"COc1ccc(CCC(=O)/C=C(\O)CCc2ccc(OC)cc2OC)c(OC)c1 [Compound 23, (Z)-1,7-Bis(2,4-dimethoxyphenyl)-5-hydroxyhept-4-en-3-one]",% ± s.e. Current Vs. ACh [200 µM],[2],498 ± 7%
same,Maximal activation over the control,"[2]; already observed at 1 µM, ACh 200 µM",about 3 fold
same,EC50,[2]; [6],0.44 ± 0.28 µM
same,chemical stability in solution (HPLC retention times and purity),[4],no alteration on the retention times and purity
"O=C(CCc1ccc(O)cc1)c1c(O)cc(O)cc1O [Compound 11, Phloretin]",activity at 10 µM,[2],231 ± 0.5%
"O=C1C[C@@H](c2ccc(O)c(O)c2)Oc2cc(O)cc(O)c21 [Compound 8, Eriodictyol]",activity at 10 µM,[2],108 ± 2.5%
"O=c1c(-c2ccc(O)cc2)coc2cc(O)cc(O)c12 [Compound 4, Genistein]",activity at 10 µM,[2],154 ± 10%
same,reported profile on ACh-evoked α7 nAChR currents in oocytes,[3],PAM profile
"COc1cc(/C=C/C(=O)CC(=O)/C=C/c2ccc(O)c(OC)c2)ccc1O [Compound 12, Curcumin]","solubility, in words",[1],Limited solubility
same,maximal potentiating effect,[2],11 ± 3 fold
same,enhancement of ACh-induced currents,"[2]; maximal effect from concentration-response, only approximated",~1100%
same,activity at 10 µM,[2],148 ± 43%
same,EC50,[2]; [6],85 ± 35 µM
same,reported type of α7 nAChR modulation,[3],Type II PAM
"O=C1C[C@@H](c2ccc(O)cc2)Oc2cc(O)cc(O)c21 [Compound 9, Naringenin]",activity at 10 µM,[2],105 ± 3%
"(1E, 4Z, 6E) -1-(2,4-Dimethoxyphenyl)-7-(2-fluoro-4-methoxyphenyl)-5-hydroxyhepta-1,4,6 -trien-3-one [Compound 22]","PAM properties / effect on ACh-induced currents, in words",[2]; ACh 200 µM,increases them only slightly
same,% ± s.e. Current Vs. ACh [200 µM],[2],153 ± 17%
"(1E, 4Z, 6E)-1-(2,4-Dimethoxyphenyl)-7-(2,5-dimethoxyphenyl)-5-hydroxyhepta-1,4,6-trien-3-one [Compound 21]","PAM properties / effect on ACh-induced currents, in words",[2]; ACh 200 µM,No significant PAM properties
same,% ± s.e. Current Vs. ACh [200 µM],[2],107 ± 4%
"O=c1cc(-c2ccc(O)c(O)c2)oc2cc(O)cc(O)c12 [Compound 3, Luteolin]",activity at 10 µM,[2],125 ± 5.5%
